{"source": "patent US9115073B2", "about": "“1,3-diphenylpropane derivatives, preparations and uses thereof” (GENFIT, priority 2011, dated 2015)", "key": {"db/db mice": {"test_system": "db/db mice", "assay": "Diabetes model (db/db mice): non-fasting glycemia and HbA1c", "type": "in vivo, mouse", "description": "Diabetes Model (db/db Mice)\nThe male db/db mice (8 to 9 week-old) were purchased from CERJ JANVIER (Le Genest Saint Isle, France). Animal care and handling was performed according to the Declaration of Helsinki and was approved by the local ethics committees. The animals were kept under a 12 hour light/dark standard light cycle and had free access to water and food. Animals were fed standard rodent chow diet (A03 SAFE, Augy, France). Mice were randomly assigned into different treatment groups, weighed and dosed by oral gavage (10 ml/kg body weight) once daily in the morning, either with the vehicle or with the compound. The vehicle used was 0.1% Tween 80 (Polyoxyethylenesorbitan monooleate) and 1% carboxymethylcellulose in 98.9% distilled water. The entire treatment protocol took 37 days. Non-fasting glycemia was measured at 8 A.M. with the Smart Check blood glucose monitoring system, in mice that have had unrestricted access to food and water throughout the night. The blood concentration of the glycosylated hemoglobin A1c was determined using the Randox kit for Daytona automate (Randox, cat# HA 3830) according to the manufacturer's recommendations. The HbA1c result was calculated as a percentage of the total hemoglobin concentration."}, "hPPARgamma": {"target": "T1, hPPARgamma (Homo sapiens, UniProt P37231)", "T1 construct": "Gal4-hPPARγ(LBD); Gal4 (fusion partner); expressed in transfected cells; host or cells: COS-7 (monkey kidney)", "T1 sequence (P37231 238-503 limits assumed)": "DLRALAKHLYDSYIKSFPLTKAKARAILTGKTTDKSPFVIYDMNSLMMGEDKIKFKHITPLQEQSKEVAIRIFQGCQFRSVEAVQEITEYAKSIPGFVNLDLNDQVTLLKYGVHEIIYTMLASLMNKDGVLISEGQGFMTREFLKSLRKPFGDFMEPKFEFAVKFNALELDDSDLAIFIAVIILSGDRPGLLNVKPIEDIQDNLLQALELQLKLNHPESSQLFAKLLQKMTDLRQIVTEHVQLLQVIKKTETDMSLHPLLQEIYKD", "assay": "Gal4-hPPARgamma transactivation assay in COS-7 cells (luciferase)", "type": "cell-based", "summary_of_the_method": "(§1)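 COS-7 cells transiently co-transfected with Gal4-hPPAR chimeras and a Gal4(RE)_TkpGL3 luciferase reporter (1/50 ratio) were seeded at 20,000 cells/well for 4 h, then treated in 2% lipid-free synthetic serum medium (0.1% DMSO). EC50 and Hill slope came from fitted luciferase curves. Emax is relative to fenofibrate 100 μM (α), rosiglitazone 10 μM (γ) or GW501516 1 μM (δ).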"}, "hPPARalpha": {"target": "T2, hPPARalpha (Homo sapiens, UniProt Q07869)", "T2 construct": "Gal4-hPPARα(LBD); Gal4 (fusion partner); expressed in transfected cells; host or cells: COS-7 (monkey kidney)", "T2 sequence (Q07869 239-466 limits assumed)": "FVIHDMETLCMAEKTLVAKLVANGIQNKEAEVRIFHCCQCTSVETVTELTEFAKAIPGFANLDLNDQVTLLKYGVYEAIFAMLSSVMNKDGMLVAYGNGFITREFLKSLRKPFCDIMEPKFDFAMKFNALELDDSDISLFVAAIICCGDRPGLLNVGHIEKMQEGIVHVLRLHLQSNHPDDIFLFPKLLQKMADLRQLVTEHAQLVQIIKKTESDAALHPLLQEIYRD", "assay": "Gal4-hPPARalpha transactivation assay in COS-7 cells (luciferase)", "type": "cell-based", "summary_of_the_method": "as §1"}, "[1]": {"conditions": "treated group, start of study period"}, "[2]": {"conditions": "maximal relative activation vs reference, listed as cpd 14-1-2"}}, "data": [{"smiles": "COC(c1ccc(OC(F)(F)F)cc1)C1CC1c1cc(C)c(OC(C)(C)C(=O)O)c(C)c1", "note": "(single isomer, unassigned) [Cpd 14-1-2, 2-(4-(2-(methoxy(4-(trifluoromethoxy)phenyl)methyl)cyclopropyl)-2,6-dimethylphenoxy)-2-methylpropanoic acid]", "values": [{"measurement": "Non-fasting glycemia", "setting": "db/db mice; 3 mg per kg per day by gavage, day 30", "value": 146, "unit": "mg/dL"}, {"measurement": "glycated hemoglobin (HbA1c)", "setting": "db/db mice; 3 mg per kg per day by gavage, day 37", "value": 4.12, "unit": "%"}, {"measurement": "decrease of non-fasting glycemia during the study period", "setting": "db/db mice; 3 mg per kg per day by gavage, start to day 30", "value": 48, "unit": "%"}, {"measurement": "change in HbA1c during the study period", "setting": "db/db mice; 3 mg per kg per day by gavage, start to day 37", "value": "no significant change"}, {"measurement": "non-fasting glycemia lower as compared to untreated controls", "setting": "db/db mice; 3 mg per kg per day, day 30, t-test p-value <0.0001", "value": 60, "unit": "%"}, {"measurement": "HbA1c lower as compared to the diabetic controls", "setting": "db/db mice; 3 mg per kg per day, day 37, t-test p-value <0.01", "value": 28, "unit": "%"}, {"measurement": "Non-fasting glycemia", "setting": "db/db mice; [1]", "value": 258, "unit": "mg/dL"}, {"measurement": "glycated hemoglobin (HbA1c)", "setting": "db/db mice; [1]", "value": 4.16, "unit": "%"}, {"measurement": "EC50", "setting": "hPPARgamma; Gal4-hPPARγ(LBD) transactivation", "value": 11, "unit": "nM"}, {"measurement": "Gal4-hPPARγ(LBD) TOP (% ref)", "setting": "hPPARgamma; [2]", "value": 82, "unit": "% ref"}, {"measurement": "EC50", "setting": "hPPARalpha; Gal4-hPPARα(LBD) transactivation", "value": 12, "unit": "nM"}, {"measurement": "Gal4-hPPARα(LBD) TOP (% ref)", "setting": "hPPARalpha; [2]", "value": 46, "unit": "% ref"}]}]}
